The assay concerns the target T1, hNaV1.7 (Homo sapiens, UniProt Q15858).
T1 construct: expressed in transfected cells; host or cells: HEK293
Briefly: QPatch NaV1.7 assay. Particulars: HEK293-hNaV1.7 cells; holding potential −90 mV, most channels in closed state; read-out: QP Nav1.7 −90 mV pIC50 (converted). The format is cell-based. The procedure:
The compounds of the invention were tested in a QPatch NaV1.7 assay.
HEK293-hNaV1.7 cells were grown in DMEM-F12+10% FBS culture media at 37° C. At a confluency of 50-70% cells were dissociated from culture flasks & triturated to ensure unicellular cell suspension; cell density was measured & adjusted to 2-3×10^6 cells/ml. Recordings were obtained using QPatch16×. The external solution was (in mM): NaCl, 128; KCl, 5; MgCl2, 2; CaCl2, 2; Glucose, 30; HEPES, 15; pH 7.3, 305-315 mOsm. Following seal formation and whole-cell access using internal solution (containing in mM: CsF, 135; EGTA/CsOH, ⅕; HEPES 10; NaCl, 10; pH 7.3, 310-320 mOsM), voltage pulse protocols were applied. Initially a steady state inactivation voltage protocol was used to determine the half-maximal voltage for steady state inactivation (V1/2 SSI). Two holding voltages were used to determine test drug inhibition: −90 mV, where most of the channels are in a closed state; and V1/2 SSI, where half of the channels are inactivated. Currents were elicited every 10 seconds by stepping to a membrane potential of 0 mV for 20 ms. Four-point cumulative concentration responses were derived by determining the peak current amplitude at each concentration of test drug over 120 second application. Curves were fitted with the Hill equation yielding pIC50 values at −90 mV and V1/2 SSI holding potentials.
A general note: The patch-clamp technique gives a direct electrical read-out from membranes.

Counter-ions that a name gives are not always drawn.

T1 sequence (Q15858 whole entry): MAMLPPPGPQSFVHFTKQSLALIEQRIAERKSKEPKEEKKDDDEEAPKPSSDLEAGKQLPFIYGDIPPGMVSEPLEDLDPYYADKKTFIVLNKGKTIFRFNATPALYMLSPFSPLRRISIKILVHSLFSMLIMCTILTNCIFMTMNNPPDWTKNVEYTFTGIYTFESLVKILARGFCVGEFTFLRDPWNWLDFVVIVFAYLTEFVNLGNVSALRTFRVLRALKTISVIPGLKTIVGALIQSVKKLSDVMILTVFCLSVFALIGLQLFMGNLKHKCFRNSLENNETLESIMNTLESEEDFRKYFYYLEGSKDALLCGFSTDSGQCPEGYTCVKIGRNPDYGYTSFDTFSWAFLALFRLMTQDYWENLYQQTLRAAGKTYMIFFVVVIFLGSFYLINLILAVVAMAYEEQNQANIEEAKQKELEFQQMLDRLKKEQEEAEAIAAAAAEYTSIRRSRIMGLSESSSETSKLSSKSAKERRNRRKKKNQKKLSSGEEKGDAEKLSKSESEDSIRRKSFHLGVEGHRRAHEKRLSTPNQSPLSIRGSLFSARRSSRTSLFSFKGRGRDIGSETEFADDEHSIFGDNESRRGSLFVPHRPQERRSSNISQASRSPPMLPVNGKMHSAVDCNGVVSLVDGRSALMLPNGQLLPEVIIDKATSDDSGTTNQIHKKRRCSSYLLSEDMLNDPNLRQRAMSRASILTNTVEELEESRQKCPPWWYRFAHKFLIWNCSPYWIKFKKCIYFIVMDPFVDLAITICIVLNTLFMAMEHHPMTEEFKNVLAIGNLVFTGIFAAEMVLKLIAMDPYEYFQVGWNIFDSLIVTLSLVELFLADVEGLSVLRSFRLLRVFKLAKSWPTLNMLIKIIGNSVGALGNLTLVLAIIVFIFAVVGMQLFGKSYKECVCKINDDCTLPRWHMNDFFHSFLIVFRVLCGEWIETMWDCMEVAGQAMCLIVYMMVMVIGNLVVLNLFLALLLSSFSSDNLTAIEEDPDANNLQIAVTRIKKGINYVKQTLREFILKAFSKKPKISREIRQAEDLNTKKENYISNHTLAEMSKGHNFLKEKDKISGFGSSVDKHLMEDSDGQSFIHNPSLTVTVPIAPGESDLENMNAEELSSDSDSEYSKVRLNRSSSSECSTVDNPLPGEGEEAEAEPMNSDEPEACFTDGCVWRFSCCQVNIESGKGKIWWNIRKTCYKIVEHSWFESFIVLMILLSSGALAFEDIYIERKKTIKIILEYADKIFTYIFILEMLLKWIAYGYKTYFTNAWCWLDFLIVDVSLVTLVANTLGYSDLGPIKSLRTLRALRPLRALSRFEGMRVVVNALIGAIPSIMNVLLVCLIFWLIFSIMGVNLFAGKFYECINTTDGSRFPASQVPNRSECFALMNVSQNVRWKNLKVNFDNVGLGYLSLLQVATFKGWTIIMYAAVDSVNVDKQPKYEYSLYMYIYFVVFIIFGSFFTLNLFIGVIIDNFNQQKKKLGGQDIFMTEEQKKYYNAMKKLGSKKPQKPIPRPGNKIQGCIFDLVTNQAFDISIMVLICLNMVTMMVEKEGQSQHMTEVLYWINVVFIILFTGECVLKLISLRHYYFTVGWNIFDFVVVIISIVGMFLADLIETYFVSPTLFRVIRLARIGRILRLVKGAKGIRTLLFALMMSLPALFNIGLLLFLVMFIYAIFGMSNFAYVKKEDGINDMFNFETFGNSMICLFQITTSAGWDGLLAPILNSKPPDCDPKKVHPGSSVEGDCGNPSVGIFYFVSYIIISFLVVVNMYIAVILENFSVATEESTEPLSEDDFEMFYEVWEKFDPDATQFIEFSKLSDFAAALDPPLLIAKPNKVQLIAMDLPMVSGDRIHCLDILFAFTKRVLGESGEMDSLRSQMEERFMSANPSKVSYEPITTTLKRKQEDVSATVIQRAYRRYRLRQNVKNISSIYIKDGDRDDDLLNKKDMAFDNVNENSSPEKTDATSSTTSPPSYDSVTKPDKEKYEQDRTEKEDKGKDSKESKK

In the case of `CN1CC[C@@]2(CC[C@H](c3cc(-c4cccc(OC(F)(F)F)c4)ccn3)N2)C1=O` [Example 1, (2R,5S)-7-Methyl-2-[4-[3-(trifluoromethoxy)phenyl]-2-pyridyl]-1,7-diazaspiro[4.4]nonan-6-one hydrochloride], the IC50 is 50.1 µM.

The values above are taken from patent publication US9303032B2, “2-(pyridin-2YL)-1, 7-diaza-spiro [4.4] nonane-6-one compound as voltage-gated sodium channels modulator” (CONVERGENCE PHARMACEUTICALS LIMITED, priority 2011, dated 2016).
